≈ marks a conversion by molar mass, not a printed value.
What was measured:
[1] = amine pH-buffers with low pKa values; cited from earlier work
Solubility in water = settings: pure water
[2] = Partitioning in two-phase diethyl ether-water extraction; type: physicochemical
Procedure: This is a modification of Method A based on the partitioning behavior in a two-phase diethyl ether-water extraction. […] 53.4 g Purified and recrystallized N-(4-fluorobenzyl)-N-decylpyrrolidinium chloride (150 mmole, fw=355.97) is placed in a 250 mL separatory funnel followed by 53.4 g degassed, deionized water. The flask is shaken until a clear, viscous solution is formed (˜1.5 M solution). 25.6 g Trifluoroacetic (225 mmole, fw=114.02) is added to the mixture which is vigorously mixed. Immediately two phases form with the product in the lower layer. 110 mL peroxide-free diether ether is added to the separatory funnel and the mixture is vigorously mixed again. After 2 hours, the phases fully separate with the product in the upper ether phase. The lower phase is discarded and the upper is retained. 55 mL 1% trifluoroacetic acid in distilled water is added, the mixture is vigorously mixed and phases are again allowed to separate. Again, the upper phase is retained, dried over anhydrous magnesium sulfate, filtered and placed on a rotary evaporator in order to remove the ether along with residual HCl, trifluoroacetic acid and water. This procedure yields 59.2 g (91%) of a pure, clear, viscous oil (ionic liquid). This material is suitable for use as a displacer. HPLC purity of the quat cation is essentially identical to the starting material. […]

[3] = Hygroscopicity of crystalline salt in air; type: physicochemical; settings: crystalline substance, absorbs moisture from the air
Procedure: 380.5 g Purified N-decylpyrrolidine (1.8 mole, fw=211.39) is added to 720 mL stirring acetonitrile in a 2 L, 4-neck round-bottom flask that is equipped with a heating mantle, mechanical stirrer, 500 mL addition funnel, reflux condensor and teflon-coated thermocouple. The reaction is carried out under a nitrogen atmosphere with a slow N2 purge. The stirring mixture is heated to 50° C., and 289.1 g freshly distilled 4-fluorobenzyl chloride (2.0 mole, fw=144.58) is added in a dropwise fashion over a period of about 60 minutes. The reaction mixture is then heated to about 80° C. for 8-12 hours and periodically monitored by HPLC (Method 10a) in order to ensure that the starting amine is entirely consumed. The reaction mixture is cooled to room temperature, filtered through sintered-glass and placed on a rotary evaporator to remove the solvent (acetonitrile). 1.0 L Methyl t-butyl ether (MTBE) is added portionwise with mechanical stirring to the sticky orange-yellow reaction residue. Once this mixture is fully suspended in the solvent, it is transferred to a clean 4 L Erlenmeyer flask, and an additional amount of MTBE (1.9 L) is slowly added with stirring. […] A sharp melting point in a glass capillary is measured at 137-138° C. when measured between 90-140° C. at the heating rate of 1.0° C./minute. […]

[4] = cited from earlier work

For `CN(C)CCN(C)C` [N,N,N′,N′-tetramethylethylene-diamine], the pKa [1] is listed as 5.9.

In the case of `CCCCCCCCCC[N+]1(Cc2ccc(F)cc2)CCCC1.[Cl-]` [N-(4-Fluorobenzyl)-N-decylpyrrolidinium Chloride], the solubility (Solubility in water) is reported as 2000 mM, the partitioning behavior [2] is reported as “strongly partitions into the water layer” and the hygroscopicity [3] is reported as “very hygroscopic”.

With `CCCCCCCCCC[N+]1(Cc2ccc(F)cc2)CCCC1.O=C([O-])C(F)(F)F` [N-(4-Fluorobenzyl)-N-decylpyrrolidinium Trifluoroacetate] the solubility (Solubility in water) was about 120 mM and the partitioning behavior [2] was “strongly partitions into the ether layer”.

For `CCN1CCNCC1` [N-ethylpiperazine], the pKa [1] is given as 5.0.

In the case of `C1CCCCC1` [cyclohexane], the solubility in water [4] is listed as about 0.01 mM (≈ 0.842 µg/mL).

For `c1ccc2ccccc2c1` [naphthalene], the solubility in water [4] is given as 0.2 mM (≈ 25.6 µg/mL).

In the case of `C1CC[C@H]2CCCC[C@@H]2C1` [trans-decalin], the solubility in water [4] is listed as under 0.001 mM.

Reference: patent publication US20140284278A1, “CATIONIC DISPLACER MOLECULES FOR HYDROPHOBIC DISPLACEMENT CHROMATOGRAPHY” (SACHEM, INC., priority 2011, published 2014)
